From patent US11149023B2, “Substituted triazole derivatives and uses thereof” (Bayer Pharma Aktiengesellschaft, priority 2017, dated 2021)

Tests used:
[1] = biological target: human V2 receptor (Homo sapiens (Human), UniProt P30518); assay: Cellular in vitro assay for determining vasopressin receptor activity (V2, CRE-luciferase); format: cell-based; conditions: CHO cell line transfected with human V2 receptor; [Arg8]-vasopressin at EC50 concentration; read-out: IC50 hV2
Description: (§1) B-1. Cellular In Vitro Assay for Determining Vasopressin Receptor Activity
(§2) The identification of agonists and antagonists of the V1a and V2 vasopressin receptors from humans, rats and dogs as well as the quantification of the activity of the compounds of the invention is carried out using recombinant cell lines. These cell lines originally derive from a hamster's ovary epithelial cell (Chinese Hamster Ovary, CHO K1, ATCC: American Type Culture Collection, Manassas, Va. 20108, USA). The test cell lines constitutively express the human, rat or dog V1a or V2 receptors. In case of the Gαq-coupled V1a receptors, cells are also stably transfected with a modified form of the calcium-sensitive photoproteins aequorin (human and rat V1a) or obe-lin (dog V1a), which, after reconstitution with the cofactor coelenterazine, emit light when there are increases in free calcium concentrations [Rizzuto R, Simpson A W, Brini M, Pozzan T, Nature 358, 325-327 (1992); Illarionov B A, Bondar V S, Illarionova V A, Vysotski E S, Gene 153 (2), 273-274 (1995)]. The resulting vasopressin receptor cells react to stimulation of the recombinantly expressed Via receptors by intracellular release of calcium ions, which can be quantified by the resulting photoprotein luminescence. The Gs-coupled V2 receptors are stably transfected into cell lines expressing the gene for firefly luciferase under control of a CRE-responsible promoter. Activation of V2 receptors induces the activation of the CRE-responsive promoter via cAMP increase, thereby inducing the expression of firefly luciferase. The light emitted by photoproteins of V1a cell lines as well as the light emitted by firefly luciferase of V2 cell lines corresponds to the activation or inhibition of the respective vasopressin receptor. The bioluminescence of the cell lines is detected using a suitable luminometer [Milligan G, Marshall F, Rees S, Trends in Pharmacological Sciences 17, 235-237 (1996)].
Vasopressin V2 Receptor Cell Lines:
On the day before the assay, the cells are plated out in culture medium (DMEM/F12, 2% FCS, 2 mM glutamine, 10 mM HEPES) in 384-well microtiter plates and kept in a cell incubator (96% humidity, 5% v/v CO2, 37° C.). On the day of the assay, test compounds in various concentrations and the agonist [Arg^8]-vasopressin at EC50 concentration are added together to the wells, and plates are incubated for 3 hours in a cell incubator. Upon addition of the cell lysis reagent Triton™ and the substrate luciferin, luminescence of firefly luciferase is measured in a luminometer.
(§3) Table 1A below lists individual IC50 values for the compounds of the invention (including racemic mixtures as well as separated enantiomers) that were obtained from cell lines transfected with the human Via or V2 receptor: […]

[2] = biological target: human V1a receptor (Homo sapiens (Human), UniProt P37288); assay: Cellular in vitro assay for determining vasopressin receptor activity (V1a, aequorin luminescence); format: cell-based; conditions: for IC50: CHO cell line transfected with human V1a receptor, [Arg8]-vasopressin at EC50 concentration, read-out: IC50 hV1a; for ratio IC50 hV2/hV1a: selectivity, IC50 hV2 divided by IC50 hV1a
human V1a receptor, sequence (P37288 whole entry): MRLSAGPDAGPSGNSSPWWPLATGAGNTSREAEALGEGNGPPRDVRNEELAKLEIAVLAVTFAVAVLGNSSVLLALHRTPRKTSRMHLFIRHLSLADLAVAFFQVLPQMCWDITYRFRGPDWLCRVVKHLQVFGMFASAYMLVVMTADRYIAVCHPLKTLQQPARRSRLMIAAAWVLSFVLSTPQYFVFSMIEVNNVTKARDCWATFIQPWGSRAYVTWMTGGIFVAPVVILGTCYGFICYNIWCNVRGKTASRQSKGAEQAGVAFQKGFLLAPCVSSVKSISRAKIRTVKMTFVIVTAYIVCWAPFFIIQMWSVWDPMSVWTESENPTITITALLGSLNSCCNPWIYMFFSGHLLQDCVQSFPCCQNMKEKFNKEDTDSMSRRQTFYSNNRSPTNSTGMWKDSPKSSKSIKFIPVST
Description: as §1, §2
Vasopressin V1a Receptor Cell Lines:
On the day before the assay, the cells are plated out in culture medium (DMEM/F12, 2% FCS, 2 mM glutamine, 10 mM HEPES, 5 μg/ml coelenterazine) in 384-well microtiter plates and kept in a cell incubator (96% humidity, 5% v/v CO2, 37° C.). On the day of the assay, test compounds in various concentrations are placed for 10 minutes in the wells of the microtiter plate before the agonist [Arg^8]-vasopressin at EC50 concentration is added. The resulting light signal is measured immediately in a luminometer.
as §3

human V2 receptor, sequence (P30518 whole entry): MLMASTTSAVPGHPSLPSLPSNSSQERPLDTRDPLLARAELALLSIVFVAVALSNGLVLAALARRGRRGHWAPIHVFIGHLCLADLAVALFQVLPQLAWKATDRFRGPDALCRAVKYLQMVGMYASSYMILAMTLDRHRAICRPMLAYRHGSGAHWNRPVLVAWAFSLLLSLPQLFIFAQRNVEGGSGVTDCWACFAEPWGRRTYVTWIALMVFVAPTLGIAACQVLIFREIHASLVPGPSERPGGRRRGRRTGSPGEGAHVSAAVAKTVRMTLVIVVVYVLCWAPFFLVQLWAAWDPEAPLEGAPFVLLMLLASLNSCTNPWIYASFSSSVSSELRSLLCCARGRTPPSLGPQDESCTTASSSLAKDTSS

Row | Compound | IC50 [1] [nM] | IC50 [2] [nM] | ratio IC50 hV2/hV1a [2]
1 | O=C(NC(Cn1c(-c2ccc(Cl)cc2)nn(Cc2ncn(-c3ncccc3Cl)n2)c1=O)C(F)(F)F)C1COC1 (racemic) [Example 1, N-{3-[3-(4-Chlorophenyl)-1-{[1-(3-chloropyridin-2-yl)-1H-1,2,4-triazol-3-yl]methyl}-5-oxo-1,5-dihydro-4H-1,2,4-triazol-4-yl]-1,1,1-trifluoropropan-2-yl}oxetane-3-carboxamide] | 245 | 4.9 | 50.0
2 | CC(=O)NC(Cn1c(-c2ccc(Cl)cc2)nn(Cc2ncn(-c3ncccc3Cl)n2)c1=O)C(F)(F)F (racemic) [Example 4, N-{3-[3-(4-Chlorophenyl)-1-{[1-(3-chloropyridin-2-yl)-1H-1,2,4-triazol-3-yl]methyl}-5-oxo-1,5-dihydro-4H-1,2,4-triazol-4-yl]-1,1,1-trifluoropropan-2-yl}acetamide] | 1850 | 55.5 | 33.3
3 | N#CCC(=O)NC(Cn1c(-c2ccc(Cl)cc2)nn(Cc2ncn(-c3ncccc3Cl)n2)c1=O)C(F)(F)F (racemic) [Example 5, N-{3-[3-(4-Chlorophenyl)-1-{[1-(3-chloropyridin-2-yl)-1H-1,2,4-triazol-3-yl]methyl}-5-oxo-1,5-dihydro-4H-1,2,4-triazol-4-yl]-1,1,1-trifluoropropan-2-yl}-2-cyanoacetamide] | 595 | 10.6 | 56.4
4 | COCC(=O)NC(Cn1c(-c2ccc(Cl)cc2)nn(Cc2ncn(-c3ncccc3Cl)n2)c1=O)C(F)(F)F (racemic) [Example 6, N-{3-[3-(4-Chlorophenyl)-1-{[1-(3-chloropyridin-2-yl)-1H-1,2,4-triazol-3-yl]methyl}-5-oxo-1,5-dihydro-4H-1,2,4-triazol-4-yl]-1,1,1-trifluoropropan-2-yl}-2-methoxyacetamide] | 630 | 5.65 | 111.5
5 | O=C(CF)NC(Cn1c(-c2ccc(Cl)cc2)nn(Cc2ncn(-c3ncccc3Cl)n2)c1=O)C(F)(F)F (racemic) [Example 8] | 2200 | 42.5 | 51.8
6 | CC(F)(F)C(=O)NC(Cn1c(-c2ccc(Cl)cc2)nn(Cc2ncn(-c3ncccc3Cl)n2)c1=O)C(F)(F)F (racemic) [Example 9] | 660 | 10 | 66.0
7 | O=C(CC(F)(F)F)NC(Cn1c(-c2ccc(Cl)cc2)nn(Cc2ncn(-c3ncccc3Cl)n2)c1=O)C(F)(F)F (racemic) [Example 11, N-{3-[3-(4-Chlorophenyl)-1-{[1-(3-chloropyridin-2-yl)-1H-1,2,4-triazol-3-yl]methyl}-5-oxo-1,5-dihydro-4H-1,2,4-triazol-4-yl]-1,1,1-trifluoropropan-2-yl}-3,3,3-trifluoropropanamide] | 45.5 | 1.2 | 37.9
8 | CCC(=O)NC(Cn1c(-c2ccc(Cl)cc2)nn(Cc2ncn(-c3ncccc3Cl)n2)c1=O)C(F)(F)F (racemic) [Example 13, N-{3-[3-(4-Chlorophenyl)-1-{[1-(3-chloropyridin-2-yl)-1H-1,2,4-triazol-3-yl]methyl}-5-oxo-1,5-dihydro-4H-1,2,4-triazol-4-yl]-1,1,1-trifluoropropan-2-yl}propanamide] | 260 | 6.95 | 37.4
9 | O=C(NC(Cn1c(-c2ccc(Cl)cc2)nn(Cc2ncn(-c3ncccc3Cl)n2)c1=O)C(F)(F)F)C1CC1 (racemic) [Example 14, N-{3-[3-(4-Chlorophenyl)-1-{[1-(3-chloropyridin-2-yl)-1H-1,2,4-triazol-3-yl]methyl}-5-oxo-1,5-dihydro-4H-1,2,4-triazol-4-yl]-1,1,1-trifluoropropan-2-yl}cyclopropanecarboxamide] | 220 | 12.4 | 17.7
10 | O=C(NC(Cn1c(-c2ccc(Cl)cc2)nn(Cc2ncn(-c3ncccc3Cl)n2)c1=O)C(F)(F)F)C1CC(F)(F)C1 (racemic) [Example 15, N-{3-[3-(4-Chlorophenyl)-1-{[1-(3-chloropyridin-2-yl)-1H-1,2,4-triazol-3-yl]methyl}-5-oxo-1,5-dihydro-4H-1,2,4-triazol-4-yl]-1,1,1-trifluoropropan-2-yl}-3,3-difluorocyclobutanecarboxamide] | 78.5 | 2.05 | 38.3
11 | CC(=O)OC(C)(C)C(=O)NC(Cn1c(-c2ccc(Cl)cc2)nn(Cc2ncn(-c3ncccc3Cl)n2)c1=O)C(F)(F)F (racemic) [Example 16, 1-({3-[3-(4-Chlorophenyl)-1-{[1-(3-chloropyridin-2-yl)-1H-1,2,4-triazol-3-yl]methyl}-5-oxo-1,5-dihydro-4H-1,2,4-triazol-4-yl]-1,1,1-trifluoropropan-2-yl}amino)-2-methyl-1-oxopropan-2-yl acetate] | 140 | 5.05 | 27.7
12 | CC(C)(O)C(=O)NC(Cn1c(-c2ccc(Cl)cc2)nn(Cc2ncn(-c3ncccc3Cl)n2)c1=O)C(F)(F)F (racemic) [Example 17, N-{3-[3-(4-Chlorophenyl)-1-{[1-(3-chloropyridin-2-yl)-1H-1,2,4-triazol-3-yl]methyl}-5-oxo-1,5-dihydro-4H-1,2,4-triazol-4-yl]-1,1,1-trifluoropropan-2-yl}-2-hydroxy-2-methylpropanamide] | 280 | 9.55 | 29.3
13 | CS(=O)(=O)NCC(=O)NC(Cn1c(-c2ccc(Cl)cc2)nn(Cc2ncn(-c3ncccc3Cl)n2)c1=O)C(F)(F)F (racemic) [Example 19, N-{3-[3-(4-Chlorophenyl)-1-{[1-(3-chloropyridin-2-yl)-1H-1,2,4-triazol-3-yl]methyl}-5-oxo-1,5-dihydro-4H-1,2,4-triazol-4-yl]-1,1,1-trifluoropropan-2-yl}-N^2-(methylsulfonyl)glycinamide] | 102 | 2.2 | 46.1
14 | O=C(CN1CCOC1=O)NC(Cn1c(-c2ccc(Cl)cc2)nn(Cc2ncn(-c3ncccc3Cl)n2)c1=O)C(F)(F)F (racemic) [Example 20, N-{3-[3-(4-Chlorophenyl)-1-{[1-(3-chloropyridin-2-yl)-1H-1,2,4-triazol-3-yl]methyl}-5-oxo-1,5-dihydro-4H-1,2,4-triazol-4-yl]-1,1,1-trifluoropropan-2-yl}-2-(2-oxo-1,3-oxazolidin-3-yl)acetamide] | 520 | 8.9 | 58.4
15 | N#CC1(C(=O)NC(Cn2c(-c3ccc(Cl)cc3)nn(Cc3ncn(-c4ncccc4Cl)n3)c2=O)C(F)(F)F)CC1 (racemic) [Example 21] | 283 | 5.95 | 47.5
16 | O=C(NC(Cn1c(-c2ccc(Cl)cc2)nn(Cc2ncn(-c3ncccc3Cl)n2)c1=O)C(F)(F)F)C1(O)CC1 (racemic) [Example 22, N-{3-[3-(4-Chlorophenyl)-1-{[1-(3-chloropyridin-2-yl)-1H-1,2,4-triazol-3-yl]methyl}-5-oxo-1,5-dihydro-4H-1,2,4-triazol-4-yl]-1,1,1-trifluoropropan-2-yl}-1-hydroxycyclopropanecarboxamide] | 150 | 4.05 | 37.0
17 | O=C(NC(Cn1c(-c2ccc(Cl)cc2)nn(Cc2ncn(-c3ncccc3Cl)n2)c1=O)C(F)(F)F)C1(C(F)(F)F)CC1 (stereo not shown) [Example 42, N-{3-[3-(4-Chlorophenyl)-1-{[1-(3-chloropyridin-2-yl)-1H-1,2,4-triazol-3-yl]methyl}-5-oxo-1,5-dihydro-4H-1,2,4-triazol-4-yl]-1,1,1-trifluoropropan-2-yl}-1-(trifluoromethyl)cyclopropane-carboxamide] |  |  | 9.0
